For one molecule, melting point results are on record in paper PMC6770071, “XIAP as a Target of New Small Organic Natural Molecules Inducing Human Cancer Cell Death” (Cancers, 2019).

`CCCCCCCC/C=C/CCc1cc(O)c(O)cc1O` [Eriopodol C, (E)-5-(dodec-3′-enyl)benzene-1,2,4-triol]: the melting point is 138.5 °C.
